Like-named read-outs stand apart in the source and are kept apart here.
What was measured:
human RAR-γ [1] = assay: RAR-γ transactivation assay (SeAP reporter, COS cells); format: cell-based; conditions: for Transactivation % max (γ): relative to all-trans-retinoic acid at same concentration (1,000 nM or 10,000 nM)
Experimental: (§1) Retinoid Receptor Transactivation Assays
(§2) Transactivation assays were performed essentially as described in Apfel et al., supra. For the RAR transcription activation test system, the secreted alkaline phosphatase gene (SeAP) is used as reporter. To have a screening system specific for the transfected receptor, chimeric receptors are used. These contain an estrogen receptor DNA binding domain and therefore recognize the estrogen response element (ERE) which no endogenous RAR's in mammalian cells will recognize.
(§3) The transactivation assay system has been adapted to 96-well plates and most steps are done by a robot. Briefly, on day 1 confluent COS cells are subcultured at an equivalent density onto 96-well plates in DMEM+10% charcoal stripped serum. On day 2 DNA is prepared for transfection by mixing the following: 10 μg vit-TK-SeAP reporter plasmid, 2 μg RAR expression plasmid, 2 μg transfection control plasmid and 30 μl Transfectam (lipopolyamine transfection reagent). Cells are washed twice with serum-free medium and DNA/transfectam mix added. After 1 hour medium is removed and replaced with growth medium containing test retinoids. On day 4 or 5 the culture supernatant is removed, heated to 65° for 5 min to inactivate nonspecific phosphatases, and diluted 1:10 with water. 20 μl samples are added to 100 μl of phosphatase substrate in buffer. After 1 hour at 37° the luminescence is measured in a 96-well luminometer.
(§4) 100 μl of β-galactosidase substrate is added to the adherent cells. Plates are incubated for 1 hour at 37° and the supernatants transferred to separate plates for quantitation of β-galactosidase activity by luminescence measurement. Transactivation results are expressed as the ratio of SeAP/β-galactosidase activity for each well to correct for well-to-well variation in transfection efficiency.
(§5) Data are means of values obtained from two or more individual experiments, rounded off to two significant figures. […] The maximum transactivation activity is determined from the plot where increasing dosage provides little or no additional activity, i.e., where the plot begins to level off. For active retinoids the highest concentration tested is 1000 nM.

RAR-β = RAR-β transactivation assay (SeAP reporter, COS cells); format: cell-based, human; conditions: for Transactivation % max (β): relative to all-trans-retinoic acid at same concentration (1,000 nM or 10,000 nM)
Experimental: as §1, §2, §3, §4, §5

human RAR-α [2] = assay: RAR-α transactivation assay (SeAP reporter, COS cells); format: cell-based; conditions: for Transactivation % max (α): relative to all-trans-retinoic acid at same concentration (1,000 nM or 10,000 nM)
Experimental: as §1, §2, §3, §4, §5

photodamaged skin = assay: Measurement of photodamage repair in the hairless mouse model; format: in vivo, Hairless mice (female, HRS/J strain); conditions: for Photodamage repair activity (scale 0 to 4): UVB-irradiated, topical in acetone three times per week, three doses
Description: The ability of a composition of the invention to induce repair of photodamaged skin may be determined by any conventional means. One conventional method of determining the ability of a topical composition to repair photodamaged skin is the hairless mouse model described by Kligman et al., supra. […] In this model, repair is defined by the appearance of a zone of normalized dermis extending from the epidermis down to the layer of compressed elastin. The extent of repair is reflected by the width of this zone. […] The average width of the repair zone is then calculated by dividing the area by the length of the histological section that was measured.
The width of the repair zone is […] an activity value of 4.
Measurement of Photodamage Repair
Hairless mice (female, HRS/J strain, Jackson Labs, 5-7 weeks old at the start of the experiments) were housed in yellow light and irradiated three times per week with a bank of 8 Westinghouse Sunlamps (FS120) placed about 20 cm above the animals. Daily doses were 0.03 J/cm^2 for two weeks, 0.06 J/cm2 for two weeks and 0.08 J/cm2 thereafter. The radiation dose is controlled by an International Light Model IL844A Phototherapy Exposure Control and a model SEE240 detector.
To effect repair of the dermal damage, the UVB irradiation was discontinued and the animals were divided into groups of approximately eight and treated three times per week with various concentrations of the retinoids dissolved in acetone. Stock solutions are made up freshly every week in subdued light at concentrations such that the dose is delivered in 100 μl volume and applied topically with a plastic pipette to an area of about 10 cm^2 on the back of the animal. All dosing was done under yellow light. A control group treated with acetone alone was included.
Two-cm strips of dorsal skin were taken longitudinally down the center of the irradiated (and treated) area. Elastin fibers were stained with Luna's aldehyde fuchsin and collagen by Van Gieson. In this model, repair is defined by the appearance of a normalized dermis extending from the epidermis down to the layer of compressed elastin. The extent of repair is reflected by the width of this zone. […] Twenty-four fields each of which, at 100X magnification, represents a section of tissue 0.57 mm long, are examined and the area calculated. The results are reported as the average area per field in mm^2. Thus the average width of the repair zone can be obtained by dividing this average area by 0.57 mm. […] All microscopic fields are included in the calculations of average area (or width). Data are analyzed by Student's t-test.
Compounds are tested at three doses and an approximate ED50 calculated.

photoaged skin = conditions: human, topical, literature studies; cited from earlier work
human RAR-γ [3] = assay: Binding assay for human RAR-γ (displacement of 3H-retinoic acid); conditions: 3H-retinoic acid displacement, mean of two or more experiments
Experimental: (§6) Binding Assay for Human RAR-α, RAR-β and RAR-γ
(§7) Binding assays were performed essentially as described in Apfel et al., supra. […] Extracts containing the receptors were used in a competitive binding assay which depends upon the ability of increasing concentrations of a retinoid to displace ^3 H-retinoic acid. In a typical assay, 0.2 to 0.4 picomoles of receptors were incubated in 0.2 ml of 50 mM Tris HCl, pH 7.4, 50 mM NaCl, 2 mM EDTA (binding buffer) containing 0.5% gelatin, 1% DMSO, 2-5 nM ^3 H-retinoic acid and various concentrations of unlabelled retinoids. After 3-5 hours at 22° C., 0.15 ml of chilled charcoal/dextran suspension (5% Norit A/0.5% dextran T-40 in binding buffer) were added for 15 min at 4° C. The tubes were centrifuged at 12,000 x g for 15 minutes and the supernates counted. Binding parameters were calculated from competition curves using the Ligand program.
(§8) Data are means of values obtained from two or more individual experiments, rounded off to two significant figures. […] When binding inhibition at 10,000 nM is less than 50%, >10,000 is indicated.

human RAR-β = target: T1, human RAR-β (Homo sapiens, UniProt P10826); assay: Binding assay for human RAR-β (displacement of 3H-retinoic acid); conditions: 3H-retinoic acid displacement, mean of two or more experiments
T1 sequence (P10826 201-455 limits assumed): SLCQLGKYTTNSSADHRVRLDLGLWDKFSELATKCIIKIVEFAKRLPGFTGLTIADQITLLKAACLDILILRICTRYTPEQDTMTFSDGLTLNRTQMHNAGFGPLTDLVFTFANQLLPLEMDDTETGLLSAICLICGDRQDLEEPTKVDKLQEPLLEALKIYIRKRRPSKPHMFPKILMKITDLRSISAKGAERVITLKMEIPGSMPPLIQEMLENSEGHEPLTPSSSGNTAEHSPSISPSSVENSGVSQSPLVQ
Experimental: as §6, §7, §8

human RAR-α [4] = target: T2, human RAR-α (Homo sapiens, UniProt P10276); assay: Binding assay for human RAR-α (displacement of 3H-retinoic acid); conditions: 3H-retinoic acid displacement, mean of two or more experiments
T2 sequence (P10276 201-462 limits assumed): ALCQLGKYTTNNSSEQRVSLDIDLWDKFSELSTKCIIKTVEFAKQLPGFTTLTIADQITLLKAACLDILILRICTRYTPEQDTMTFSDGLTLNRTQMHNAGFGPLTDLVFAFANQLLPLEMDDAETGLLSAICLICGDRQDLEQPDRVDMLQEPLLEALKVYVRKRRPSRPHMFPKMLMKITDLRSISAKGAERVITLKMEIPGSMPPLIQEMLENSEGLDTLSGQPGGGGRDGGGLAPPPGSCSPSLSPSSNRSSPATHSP

[5] = RAR-γ, COS cells, 50% of the compound's own maximum, set to highest concentration tested (usually 1000 nM) if no maximum reached, read-out: Transactivation ED50 (γ)
[6] = COS cells, 50% of the compound's own maximum, set to highest concentration tested (usually 1000 nM) if no maximum reached, read-out: Transactivation ED50 (β)
[7] = COS cells, 50% of the compound's own maximum, set to highest concentration tested (usually 1000 nM) if no maximum reached, read-out: Transactivation ED50 (α)

Row | Structure (SMILES) | EC50 (human RAR-γ [1]) [nM] | Transactivation % max (γ) (human RAR-γ [1]; RAR-γ) [%] | EC50 (RAR-β; read-out: Transactivation ED50 (β), COS cells, 50% of the compound's own maximum, set to highest concentration tested (usually 1000 nM) if no maximum reached) [nM] | Transactivation % max (β) (RAR-β) [%] | EC50 (human RAR-α [2]; read-out: Transactivation ED50 (α), COS cells, 50% of the compound's own maximum, set to highest concentration tested (usually 1000 nM) if no maximum reached) [nM] | Transactivation % max (α) (human RAR-α [2]) [%] | Photodamage repair activity (scale 0 to 4) (photodamaged skin) | ED50 for photodamage repair (photodamaged skin; μg of test compound applied to 10 cm^2 of skin area, standard retinoid) [µg] | Clinical improvement of photodamaged/photoaged skin (photoaged skin) | EC50 (human RAR-γ [1]; [5]) [nM] | IC50 (human RAR-γ [3]) [nM] | EC50 (RAR-β; [6]) [nM] | IC50 (human RAR-β) [nM] | EC50 (human RAR-α [2]; [7]) [nM] | IC50 (human RAR-α [4]) [nM]
1 | CC1=C(/C=C/C(C)=C/C=C/C(C)=C\C(=O)O)C(C)(C)CCC1 [B, 13-cis retinoic acid, reference compound] | […] | […] | […] | […] | […] | […] | 2 (an ED50 of 10 μg) | 10 | efficacy of isotretinoin in photodamage has been demonstrated | – | – | – | – | – | –
2 | CCCCCCc1cc2c(cc1/C=C/c1ccc(C(=O)O)cc1)C(C)(C)CCC2(C)C [M] | – | 36 | – | 62 | – | 24 | 4 | – | – | 15 | 210 | 88 | 2300 | 1000 | 2200
3 | CCCCCCc1cc2c(cc1/C=C/C=C/C(C)=C/C(=O)O)C(C)(C)CCC2(C)C [N] | – | 123 | – | 60 | – | 63 | 4 | – | – | 64 | 170 | 1000 | 2900 | 1000 | 1500
4 | CCCCc1cc2c(cc1/C=C/c1ccc(C(=O)O)cc1)C(C)(C)CCC2(C)C [O] | – | 105 | – | 88 | – | 56 | 4 | – | – | 6 | 170 | 30 | 1800 | 130 | 1500
5 | CCCCCOc1cc2c(cc1/C=C/c1ccc(C(=O)O)cc1)C(C)(C)CCC2(C)C [P] | – | 90 | – | 60 | – | 16 | 4 | – | – | 29 | 670 | 150 | 7600 | 1000 | > 10000
6 | CCCCCOc1cc2c(cc1/C=C/C=C/C(C)=C/C(=O)O)C(C)(C)CCC2(C)C [Q] | – | 96 | – | 81 | – | 45 | 4 | – | – | 29 | 2000 | 150 | 9300 | 1000 | > 10000
